# Key:
# [1] = system: p53-regulated genes (p21, miR-34a, miR-200c); assay: qPCR expression of p300, p53, p21, miR-34a, miR-200c in UMSCC47 cells; type: cell-based, human; details: UMSCC47, 10 μM, 24 hours, vs control
# Description: FIG. 5A is an schematic illustration showing that CH1 has two distinct target sites. HIF1-α/p300 structures were used as guides to design helix mimetics that target site A and site B on the CH1 domain of p300. […] CH1iA (SEQ ID NO: 7) and CH1iB (SEQ ID NO: 8) were designed to mimic two helices from the C-terminal domain of HIF-1α. The peptides were locked into the helical conformation by the hydrogen bond surrogate method. FIG. 5C is a graph of p53 activity. UMSCC47 (left) and UMSCC74A (right) cells were co-transfected with a p53 Firefly luciferase reporter plasmid and a control Renilla luciferase plasmid. After 24 hours, cells were treated with control (vehicle), CH1iA (10 μM), or CH1iB (10 μM) for 24 hours. Firefly luciferase activity was normalized to Renilla luciferase activity to control for transfection efficiency. Data is normalized to control and presented as mean±SEM. *P<0.05, n=3. […] UMSCC47 (top panel) and UMSCC74A (bottom panel) cells were treated with control (vehicle), CH1iA (10 μM), or CH1iB (10 μM) for 24 hours. mRNA expression was determined using qPCR with validated TaqMan assays. […]
# FIG. 6A is a western blot showing total and acetylated p53 levels. […] UMSCC47 cells were treated with control (vehicle), CH1iB (10 μM), cis-platinum (10 μM), or CH1iB (10 μM) and cis-platinum (10 μM) for 24 hours. mRNA expression was determined using qPCR with validated TaqMan assays. […]
# [2] = molecular target: T1, HPV16 E6-p300 association (Homo sapiens, UniProt Q09472); assay: Immunoprecipitation of HPV16 E6-p300 association in UMSCC47 cells; type: cell-based; details: UMSCC47, 10 μM, 24 hours
# T1 construct: UMSCC47 cells were treated with control (vehicle), CH1iA (10 μM), or CH1iB (10 μM) for 24 hours; endogenous in cells; host or cells: UMSCC47 (HPV16-positive HNSCC cells)
# Description: FIG. 5C is a graph of p53 activity. UMSCC47 (left) and UMSCC74A (right) cells were co-transfected with a p53 Firefly luciferase reporter plasmid and a control Renilla luciferase plasmid. After 24 hours, cells were treated with control (vehicle), CH1iA (10 μM), or CH1iB (10 μM) for 24 hours. Firefly luciferase activity was normalized to Renilla luciferase activity to control for transfection efficiency. Data is normalized to control and presented as mean±SEM. *P<0.05, n=3. FIG. 5D is a western blot showing total and acetylated p53 levels. UMSCC47 (left) and UMSCC74A (right) cells were treated with control (vehicle), CH1iA (10 μM), or CH1iB (10 μM) for 24 hours. Cell lysates were immunoblotted with anti-p53 or anti-acetylated[K382]-p53 antibody. FIG. 5E is a pair of graphs of p300, p53, p21, miR-34a, and miR-200c expression. UMSCC47 (top panel) and UMSCC74A (bottom panel) cells were treated with control (vehicle), CH1iA (10 μM), or CH1iB (10 μM) for 24 hours. mRNA expression was determined using qPCR with validated TaqMan assays. Data is normalized to control cells and presented as mean±SEM. *P<0.01, control vs. CH1iB, n=3. […] UMSCC47 cells were treated with control (vehicle), CH1iA (10 μM), or CH1iB (10 μM) for 24 hours. Cell lysates were extracted, immunoprecipitated with anti-p300 antibody, and immunoblotted with anti-E6 antibody. […]
# UMSCC47 cells = assay: Clonogenic survival of UMSCC47 cells; type: cell-based, human; details: UMSCC47, 10 μM at day 0, colonies at 14 days, vs vehicle
# T1 sequence (Q09472 whole entry): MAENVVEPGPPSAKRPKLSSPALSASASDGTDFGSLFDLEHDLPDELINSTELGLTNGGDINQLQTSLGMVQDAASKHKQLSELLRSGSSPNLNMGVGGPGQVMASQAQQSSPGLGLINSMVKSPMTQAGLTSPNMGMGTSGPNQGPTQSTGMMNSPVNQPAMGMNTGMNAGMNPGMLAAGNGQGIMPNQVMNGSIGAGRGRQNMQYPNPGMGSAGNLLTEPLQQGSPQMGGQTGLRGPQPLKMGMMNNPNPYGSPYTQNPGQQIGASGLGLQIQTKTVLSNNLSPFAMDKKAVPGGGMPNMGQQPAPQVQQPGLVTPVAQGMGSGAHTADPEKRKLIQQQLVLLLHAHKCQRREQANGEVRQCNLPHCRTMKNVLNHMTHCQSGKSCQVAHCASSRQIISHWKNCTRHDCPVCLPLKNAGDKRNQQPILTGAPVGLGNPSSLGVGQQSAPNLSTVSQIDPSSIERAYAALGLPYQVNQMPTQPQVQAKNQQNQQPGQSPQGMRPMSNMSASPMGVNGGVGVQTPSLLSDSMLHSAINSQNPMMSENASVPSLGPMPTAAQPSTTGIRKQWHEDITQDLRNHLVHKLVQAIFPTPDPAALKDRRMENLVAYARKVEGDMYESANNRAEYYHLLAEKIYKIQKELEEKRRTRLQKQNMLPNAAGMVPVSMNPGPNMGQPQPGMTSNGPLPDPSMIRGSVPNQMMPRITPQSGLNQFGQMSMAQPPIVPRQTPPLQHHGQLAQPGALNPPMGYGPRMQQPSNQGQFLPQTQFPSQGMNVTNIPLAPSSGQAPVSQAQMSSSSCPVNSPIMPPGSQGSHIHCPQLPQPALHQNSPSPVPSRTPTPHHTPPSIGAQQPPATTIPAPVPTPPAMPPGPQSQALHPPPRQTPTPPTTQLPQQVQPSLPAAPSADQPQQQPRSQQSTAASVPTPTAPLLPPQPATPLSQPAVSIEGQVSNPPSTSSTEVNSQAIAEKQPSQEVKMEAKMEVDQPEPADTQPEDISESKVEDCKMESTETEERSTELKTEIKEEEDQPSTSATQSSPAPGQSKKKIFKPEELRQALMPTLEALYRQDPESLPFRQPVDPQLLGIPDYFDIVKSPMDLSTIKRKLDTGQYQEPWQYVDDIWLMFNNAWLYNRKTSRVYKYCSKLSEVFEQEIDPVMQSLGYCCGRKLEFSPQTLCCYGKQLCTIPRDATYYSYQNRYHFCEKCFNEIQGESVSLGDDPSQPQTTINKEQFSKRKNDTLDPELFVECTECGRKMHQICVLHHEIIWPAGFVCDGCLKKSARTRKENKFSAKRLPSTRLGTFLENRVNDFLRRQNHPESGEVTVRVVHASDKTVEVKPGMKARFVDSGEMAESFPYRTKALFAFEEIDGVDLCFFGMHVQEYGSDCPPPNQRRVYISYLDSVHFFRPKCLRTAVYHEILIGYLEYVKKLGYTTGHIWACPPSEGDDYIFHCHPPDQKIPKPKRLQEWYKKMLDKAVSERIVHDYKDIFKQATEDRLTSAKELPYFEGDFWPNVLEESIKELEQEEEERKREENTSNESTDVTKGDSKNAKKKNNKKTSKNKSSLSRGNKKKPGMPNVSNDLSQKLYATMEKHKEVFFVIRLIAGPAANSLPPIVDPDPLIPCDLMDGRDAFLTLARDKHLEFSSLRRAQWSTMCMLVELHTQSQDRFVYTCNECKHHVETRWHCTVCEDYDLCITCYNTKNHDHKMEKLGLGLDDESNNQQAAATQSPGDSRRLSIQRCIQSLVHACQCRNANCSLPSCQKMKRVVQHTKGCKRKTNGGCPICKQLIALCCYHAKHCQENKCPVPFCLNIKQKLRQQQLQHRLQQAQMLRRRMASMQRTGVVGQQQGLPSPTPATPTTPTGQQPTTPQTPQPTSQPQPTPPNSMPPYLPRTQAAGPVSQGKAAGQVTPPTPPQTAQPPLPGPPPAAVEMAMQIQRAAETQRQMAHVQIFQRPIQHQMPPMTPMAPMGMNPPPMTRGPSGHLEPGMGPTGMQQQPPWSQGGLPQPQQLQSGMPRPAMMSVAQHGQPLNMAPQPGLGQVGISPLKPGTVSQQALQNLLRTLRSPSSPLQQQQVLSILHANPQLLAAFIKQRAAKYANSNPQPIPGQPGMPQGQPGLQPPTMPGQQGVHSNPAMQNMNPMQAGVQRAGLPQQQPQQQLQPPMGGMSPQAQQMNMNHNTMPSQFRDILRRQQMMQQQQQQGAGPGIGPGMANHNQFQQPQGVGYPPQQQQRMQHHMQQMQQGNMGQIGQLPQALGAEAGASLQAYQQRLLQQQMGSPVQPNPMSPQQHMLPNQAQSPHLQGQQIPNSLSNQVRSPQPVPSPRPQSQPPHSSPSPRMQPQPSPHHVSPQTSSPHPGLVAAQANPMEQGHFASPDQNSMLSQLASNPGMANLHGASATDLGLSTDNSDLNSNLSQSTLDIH
substance,measurement,setting,value
"XELA*RALDQ-NH2 (ELXRALDQ; HBS: 4-pentenoic acid, N-allylalanine; C-terminal amide; CH1iB) [X 4-pentenoic acid, A* N-allylalanine]","p21, miR-34a, and miR-200c expression",[1],modest but significant increase
same,association between E6 and p300,[2],reduced
same,reduction (inhibition) of clonogenic survival,UMSCC47 cells,35%
